Key:
ivyleaf speedwell = assay: Test E postemergence ivyleaf speedwell; format: in vivo, Veronica hederaefolia
Description: (§1) Compounds evaluated in this test were formulated in a non-phytotoxic solvent mixture which included a surfactant and applied to plants that were in the 1- to 4-leaf stage (postemergence application). A mixture of sandy loam soil and greenhouse potting mix in a 60:40 ratio was used for the postemergence test.
(§2) Plantings of these crops and weed species were adjusted to produce plants of appropriate size for the postemergence test. All plant species were grown using normal greenhouse practices. Crop and weed species include annual bluegrass (Poa annua), blackgrass (Alopecurus myosuroides), black nightshade (Solanum nigra), chickweed (Stellaria media), common poppy (Papaver rhoeas), deadnettle (Lamium amplexicaule), downy brome (Bromus tectorum), field violet (Viola arvensis), galium (Galium aparine), green foxtail (Setaria viridis), Italian ryegrass (Lolium multiflorum), jointed goatgrass (Aegilops cylindrica), kochia (Kochia scoparia), lambsquarters (Chenopodium album), littleseed canarygrass (Phalaris minor), rape (Brassica napus), redroot pigweed (Amaranthus retroflexus), Russian thistle (Salsola kali), scentless chamomile (Matricaria inodora), spring barley (Hordeum vulgare), sugar beet (Beta vulgaris), sunflower (Helianthus annuus), ivyleaf speedwell (Veronica hederaefolia), spring wheat (Triticum aestivum), winter wheat (Triticum aestivum), wild buckwheat (Polygonum convolvulus), wild mustard (Sinapis arvensis), wild oat (Avena fatua), windgrass (Apera spica-venti) and winter barley (Hordeum vulgare).
(§3) Treated plants and untreated controls were maintained in a greenhouse for approximately 21 to 28 days, after which all treated plants were compared to untreated controls and visually evaluated. […] A dash response (-) means no test result.

littleseed canarygrass = assay: Test E littleseed canarygrass; format: in vivo, Phalaris minor; conditions: Postemergence
Description: as §1, §2, §3

sunflower = assay: Test E sunflower; format: in vivo, Helianthus annuus; conditions: Postemergence
Description: as §2, with “Plantings of these crops and weed species were adjusted to produce plants of appropriate size for the postemergence test.” left out
as §3

jointed goatgrass = assay: Test E jointed goatgrass; format: in vivo, Aegilops cylindrica; conditions: Preemergence
annual bluegrass = assay: Test E annual bluegrass; format: in vivo, Poa annua; conditions: Postemergence
Description: as §1, §2, §3

redroot pigweed = assay: Test E redroot pigweed; format: in vivo, Amaranthus retroflexus; conditions: Preemergence
chickweed = assay: Test E chickweed; format: in vivo, Stellaria media; conditions: Postemergence
Description: as §1, §2, §3

winter barley = assay: Test E winter barley; format: in vivo, Hordeum vulgare; conditions: Postemergence
Description: as §1, §2, §3

kochia = assay: Test E kochia; format: in vivo, Kochia scoparia; conditions: Preemergence
field violet = assay: Test E field violet; format: in vivo, Viola arvensis; conditions: Postemergence
Description: as §1, §2, §3

sandbur = assay: Test D sandbur; format: in vivo, Cenchrus echinatus; conditions: Postemergence, 0 to 100 scale; for Sandbur plant response rating: 0 no injury, 100 complete control
surinam grass = assay: Test D surinam grass; format: in vivo, Brachiaria decumbens; conditions: Postemergence, 0 to 100 scale; for Surinam grass plant response rating: 0 no injury, 100 complete control
bermuda-grass = assay: Test D bermudagrass; format: in vivo, Cynodon dactylon; conditions: Postemergence, 0 to 100 scale
goosegrass = assay: Test D goosegrass; format: in vivo, Eleusine indica; conditions: Postemergence, 0 to 100 scale
guineagrass = assay: Test D guineagrass; format: in vivo, Panicum maximum; conditions: Postemergence, 0 to 100 scale
Spanishneedles = assay: Test D Spanishneedles; format: in vivo, Bidens bipinnata; conditions: Postemergence, 0 to 100 scale; for Spanishneedles plant response rating: 0 no injury, 100 complete control
Green foxtail [1] = assay: Test D green foxtail; format: in vivo; conditions: Postemergence, 0 to 100 scale, 0 no injury, 100 complete control
Green foxtail [2] = assay: Test D green foxtail; format: in vivo; conditions: Postemergence, 0 to 100 scale
[3] = Rate 250 g/ha, 0 to 100 scale (0 no effect, 100 complete control)
[4] = Rate 500 g/ha, 0 to 100 scale, 0 no effect, 100 complete control
[5] = Rate 125 g/ha, 0 to 100 scale (0 no effect, 100 complete control)
[6] = Rate 500 g/ha, 0 to 100 scale where 0 is no effect and 100 is complete control
[7] = Rate 250 g/ha, 0 to 100 scale where 0 is no effect and 100 is complete control
[8] = Rate 64 g/ha, 0 no injury, 100 complete control
[9] = Rate 125 g/ha, 0 no injury, 100 complete control

Q: What does the source list for `CC(C)N(C(=O)n1oc(=O)n(C(C)C)c1=O)c1ccc(F)cc1F` [Compound 109]?
A: Plant response rating, Veronica hedera (ivyleaf speedwell; Rate 125 g/ha, 0 to 100 scale): 20; Plant response rating, Veronica hedera (ivyleaf speedwell; [3]): 50; Plant response rating, Veronica hedera (ivyleaf speedwell; [4]): 70; Plant response rating, LS canarygrass (littleseed canarygrass; Rate 125 g/ha, 0 to 100 scale): 25; Plant response rating, LS canarygrass (littleseed canarygrass; [3]): 50; Plant response rating, LS canarygrass (littleseed canarygrass; [4]): 65; Plant response rating, Sunflower (sunflower; Rate 125 g/ha, 0 to 100 scale): 30; Plant response rating, Sunflower (sunflower; [3]): 30; Plant response rating, Sunflower (sunflower; [4]): 40; Plant response rating, Jointed goatgra (jointed goatgrass; [5]): 20; Plant response rating, Jointed goatgra (jointed goatgrass; Rate 250 g/ha, 0 to 100 scale): 65; Plant response rating, Jointed goatgra (jointed goatgrass; [6]): 70; Plant response rating, Annual bluegras (annual bluegrass; Rate 125 g/ha, 0 to 100 scale): 10; Plant response rating, Annual bluegras (annual bluegrass; [3]): 10; Plant response rating, Annual bluegras (annual bluegrass; [4]): 50; Plant response rating, Redroot pigweed (redroot pigweed; [5]): 70; Plant response rating, Redroot pigweed (redroot pigweed; Rate 250 g/ha, 0 to 100 scale): 100; Plant response rating, Redroot pigweed (redroot pigweed; [6]): 100; Plant response rating, Chickweed (chickweed; Rate 125 g/ha, 0 to 100 scale): 0; Plant response rating, Chickweed (chickweed; [3]): 0; Plant response rating, Chickweed (chickweed; [4]): 10; Plant response rating, Barley (winter) (winter barley; Rate 125 g/ha, 0 to 100 scale): 40; Plant response rating, Barley (winter) (winter barley; [3]): 20; Plant response rating, Barley (winter) (winter barley; [4]): 10; Plant response rating, Kochia (kochia; [5]): 0; Plant response rating, Kochia (kochia; Rate 250 g/ha, 0 to 100 scale): 50; Plant response rating, Kochia (kochia; [6]): 100; Plant response rating, Field violet (field violet; Rate 125 g/ha, 0 to 100 scale): 10; Plant response rating, Field violet (field violet; [3]): 20; Plant response rating, Field violet (field violet; [4]): 40

Q: Which results are given for `C=CCn1c(=O)on(C(=O)N(c2ccc(F)cc2)C(C)C)c1=O` [Compound 146]?
A: Plant response rating, Veronica hedera (ivyleaf speedwell; Rate 125 g/ha, 0 to 100 scale): 60; Veronica hedera plant response rating (ivyleaf speedwell; [7]): 40; Plant response rating, Veronica hedera (ivyleaf speedwell; [4]): 70; Sandbur plant response rating (sandbur; Rate 64 g/ha): 0; Plant response rating, Sandbur (sandbur; Rate 250 g/ha): 85; Plant response rating, Sandbur (sandbur; Rate 500 g/ha): 80; Plant response rating, LS canarygrass (littleseed canarygrass; Rate 62 g/ha, 0 to 100 scale): 30; Plant response rating, LS canarygrass (littleseed canarygrass; Rate 125 g/ha, 0 to 100 scale): 30; Plant response rating, LS canarygrass (littleseed canarygrass; [4]): 65; LS canarygrass plant response rating (littleseed canarygrass; [7]): 30; Plant response rating Surinam grass (surinam grass; Rate 500 g/ha): 80; Plant response rating, Bermudagrass (bermuda-grass; [8]): 0; Plant response rating, Bermudagrass (bermuda-grass; [9]): 0; Plant response rating, Bermudagrass (bermuda-grass; Rate 250 g/ha): 0; Plant response rating, Bermudagrass (bermuda-grass; Rate 500 g/ha): 35; Plant response rating, Goosegrass (goosegrass; [8]): 0; Plant response rating, Goosegrass (goosegrass; [9]): 35; Plant response rating, Goosegrass (goosegrass; Rate 250 g/ha): 30; Plant response rating, Goosegrass (goosegrass; Rate 500 g/ha): 80; Plant response rating, Sunflower (sunflower; Rate 62 g/ha, 0 to 100 scale): 0; Plant response rating, Sunflower (sunflower; Rate 125 g/ha, 0 to 100 scale): 40; Plant response rating, Sunflower (sunflower; [4]): 50; Sunflower plant response rating (sunflower; [7]): 40; Plant response rating, Jointed goatgra (jointed goatgrass; [5]): 45; Jointed goatgra plant response rating (0 to 100 scale) (jointed goatgrass; Rate 250 g/ha): 50; Plant response rating, Jointed goatgra (jointed goatgrass; [6]): 50; Plant response rating, Annual bluegras (annual bluegrass; Rate 62 g/ha, 0 to 100 scale): 85; Plant response rating, Annual bluegras (annual bluegrass; Rate 125 g/ha, 0 to 100 scale): 10; Plant response rating, Annual bluegras (annual bluegrass; [4]): 65; Annual bluegras plant response rating (annual bluegrass; [7]): 10; Plant response rating, Redroot pigweed (redroot pigweed; [5]): 70; Redroot pigweed plant response rating (0 to 100 scale) (redroot pigweed; Rate 250 g/ha): 100; Plant response rating, Redroot pigweed (redroot pigweed; [6]): 100; Plant response rating, Guineagrass (guineagrass; [8]): 10; Plant response rating, Guineagrass (guineagrass; [9]): 10; Plant response rating, Guineagrass (guineagrass; Rate 250 g/ha): 35; Plant response rating, Guineagrass (guineagrass; Rate 500 g/ha): 60; Plant response rating, Chickweed (chickweed; Rate 62 g/ha, 0 to 100 scale): 30; Plant response rating, Chickweed (chickweed; Rate 125 g/ha, 0 to 100 scale): 0; Plant response rating, Chickweed (chickweed; [4]): 30; Chickweed plant response rating (chickweed; [7]): 0; Plant response rating, Barley (winter) (winter barley; Rate 62 g/ha, 0 to 100 scale): 5; Plant response rating, Barley (winter) (winter barley; Rate 125 g/ha, 0 to 100 scale): 10; Plant response rating, Barley (winter) (winter barley; [4]): 20; Barley (winter) plant response rating (winter barley; [7]): 10; Plant response rating, Kochia (kochia; [5]): 0; Kochia plant response rating (0 to 100 scale) (kochia; Rate 250 g/ha): 50; Plant response rating, Kochia (kochia; [6]): 75; Plant response rating, Field violet (field violet; Rate 62 g/ha, 0 to 100 scale): 50; Plant response rating, Field violet (field violet; Rate 125 g/ha, 0 to 100 scale): 0; Plant response rating, Field violet (field violet; [4]): 10; Field violet plant response rating (field violet; [7]): 0; Spanishneedles plant response rating (Spanishneedles; Rate 64 g/ha): 10; Spanishneedles plant response rating (Spanishneedles; Rate 125 g/ha): 10; Plant response rating, Spanishneedles (Spanishneedles; Rate 250 g/ha): 10; Plant response rating, Spanishneedles (Spanishneedles; Rate 500 g/ha): 20

Q: Which results are given for `CC(C)N(C(=O)n1oc(=O)n(C2CC2)c1=O)c1ccc(F)cc1F` [Compound 299]?
A: Sandbur plant response rating (sandbur; Rate 64 g/ha): 90; Sandbur plant response rating (sandbur; Rate 125 g/ha): 100; Plant response rating, Sandbur (sandbur; Rate 250 g/ha): 100; Plant response rating, Sandbur (sandbur; Rate 500 g/ha): 100; Surinam grass plant response rating (surinam grass; Rate 64 g/ha): 50; Surinam grass plant response rating (surinam grass; Rate 125 g/ha): 100; Plant response rating Surinam grass (surinam grass; Rate 250 g/ha): 100; Plant response rating Surinam grass (surinam grass; Rate 500 g/ha): 100; Plant response rating, Bermudagrass (bermuda-grass; [8]): 90; Plant response rating, Bermudagrass (bermuda-grass; [9]): 100; Plant response rating, Bermudagrass (bermuda-grass; Rate 250 g/ha): 100; Plant response rating, Bermudagrass (bermuda-grass; Rate 500 g/ha): 100; Plant response rating, Goosegrass (goosegrass; [8]): 90; Plant response rating, Goosegrass (goosegrass; [9]): 100; Plant response rating, Goosegrass (goosegrass; Rate 250 g/ha): 100; Plant response rating, Goosegrass (goosegrass; Rate 500 g/ha): 100; Plant response rating, Green foxtail (Green foxtail [1]; Rate 64 g/ha): 100; Plant response rating, Green foxtail (Green foxtail [1]; Rate 125 g/ha): 100; Guineagrass plant response rating (guineagrass; [8]): 20; Plant response rating, Guineagrass (guineagrass; [8]): 0; Plant response rating, Guineagrass (guineagrass; [9]): 80; Plant response rating, Guineagrass (guineagrass; Rate 250 g/ha): 100; Plant response rating, Guineagrass (guineagrass; Rate 500 g/ha): 100; Plant response rating, Green foxtail (Green foxtail [2]; Rate 250 g/ha): 100; Plant response rating, Green foxtail (Green foxtail [2]; Rate 500 g/ha): 100; Spanishneedles plant response rating (Spanishneedles; Rate 64 g/ha): 0; Spanishneedles plant response rating (Spanishneedles; Rate 125 g/ha): 0; Plant response rating, Spanishneedles (Spanishneedles; Rate 250 g/ha): 20; Plant response rating, Spanishneedles (Spanishneedles; Rate 500 g/ha): 100

From US6737383B1, “Herbicidal oxadiazolidines” (priority 1999, dated 2004)
